Assays:
HCT116DICER^ex5 cells [1] = assay: Cell cycle FACS analysis of siRNAs against top G1 and G2 arrest genes (nocodazole or aphidicolin); format: cell-based, human; conditions: 10 mM miR-192
Experimental: Of the 62 genes shown above in TABLE 6, the 10 genes whose targeting by siRNA caused the largest percentage of cells to arrest in G1, listed below in TABLE 7, were transfected into HCT116DICER^ex5 cells in another experiment as follows.
HCT116DICER^ex5 cells were transfected with […] miR-192 or 100 nM siRNA against luciferase, or 100 nM siRNA (one siRNA duplex of the pool of three) against the putative miR-192 target of interest, as indicated in TABLES 7 and 8. At 48 hours post transfection, cells were treated with nocodazole or aphicicolin for an additional 18 hours prior to FACS analysis. The results for the nocodazole treated cells (% of cells in G1) are provided in TABLE 7, and graphically illustrated in FIG. 3A. The results for the aphidicolin treated cells (% of cells in G2) are provided in TABLE 8 and graphically illustrated in FIG. 3B.

[2] = test system: miR-192 target transcripts; assay: Down-regulation of miR-192 target transcripts; format: cell-based
[3] = test system: 18 candidate downstream targets of miR-192/miR-215 in U-2-OS cells; assay: Transcript abundance of target genes by quantitative PCR (Taqman); format: cell-based; conditions: 10 nM, 10 hours following transfection, relative to luciferase siRNA or miR-192 seed region mutant
Experimental: To further confirm that the candidate genes shown in TABLE 7 and TABLE 8 are direct downstream targets of miR-192/miR-215, miR-192 siRNA (10 nM) synthetic duplexes, miR-192 mutant (10 nM) or 10 nM siRNA against luciferase were transfected into the cell line U-2-OS, an osteosarcoma cell line that has wild-type DICER function and a relatively low endogenous level of miR-192/miR-215.
RNA was isolated at 10 hours post-transfection and transcript abundance of the target genes shown in TABLE 7 and TABLE 8 was measured by quantitative PCR. Transcript abundance was measured by Taqman gene expression assay (Applied Biosystems) using hGUS as an internal control. Levels of transcripts were quantified using an ABI Prism 7900HT sequence detection system.

HCT116DICER^ex5 cells [4] = assay: Phospho-histone H3 immunostaining, flow cytometry (M-phase), nocodazole-treated; format: cell-based, human; conditions: phospho-histone-H3 positive, 10 nM duplex
Experimental: At 48 hours post transfection, cells were left untreated, treated with nocodazole (100 ng/mL, Sigma-Aldrich), or treated with aphidicolin (2 μg/mL, Sigma-Aldrich) for an additional 18 hours before harvesting. The cells were then trypsinized, collected, fixed and stained with a propidium iodide solution. BrdU-labeling was performed according to the manufacturer's instructions (BD-Pharmigen). For phospho-histone H3 analysis, cells were fixed and permeabilized with IPF buffer (100 mM PIPES pH 6.8, 10 mM EDTA, 1 mM MgCl2, 0.2% Triton X-100, 4% formaldehyde) and stained with propidium iodide and anti-phospho-histone H3 antibody conjugated to Alexa-488 (Cell Signaling Technology). The cells were analyzed using a FACSCalibur flow cytometer (Beacton Dickinson) and FlowJo software (Tree Star, Inc.).
Nocodazole-treated mock transfected and miR-192 transfected cells were also permeabilized, immunostained for phospho-histone-H3 (a mitotic marker) and sorted for DNA content and the respective accumulation of positively stained cells in the mitotic compartment was quantified. It was determined that the percentage of cells in M-phase in the mock transfected population was 40.9%, whereas the percentage of cells in M-phase in the miR-192 transfected population was 4.9%.

HCT116DICER^ex5 cells [5] = assay: Transfection of siRNA pools (G1 or G2 gene set) at suboptimal levels, cell cycle FACS analysis (nocodazole or aphidicolin); format: cell-based, human; conditions: 10 nM; for % G1 / % G2: 66 hours post transfection
Experimental: […] At 48 hours post-transfection into HCT116DICER^ex5 cells, the cells were treated with nocodazole for an additional 18 hours prior to FACS analysis.
[…] At 48 hours post-transfection into HCT116DICER^ex5 cells, the cells were treated with aphidicolin for an additional 18 hours prior to FACS analysis.

[6] = test system: 3′ UTRs of the 18 candidate genes in U-2-OS cells; assay: 3′ UTR luciferase reporter analysis; format: cell-based; conditions: 10 nM, 24 hours post-transfection
From the text: In order to test whether miR-192 is regulating these genes through seed sequence-specific recognition of binding sites within their 3' UTRs, a series of reporter constructs were generated containing the entire natural 3' UTRs of the 18 candidate genes (BCL2, CDC7, CUL5, DLG5, DTL, ERCC3, HOXA10, HRH1, LMNB2, MAD2L1, MCM10, MIS12, MPHOSPH1, PIM1, PRPF38A, […]1, SEPT10 and SMARCB1) inserted downstream of a luciferase open reading frame (SwitchGear Genomics) to create 3' UTR luciferase reporter plasmids. U-2-OS cells were transfected first with 10 nM miR-192 or 10 nM miR-192 mutant, and subsequently transfected 4 to 6 hours later with these 3' UTR reporter plasmids. A renilla luciferase expression plasmid from dual luciferase system (Promega) was used as an internal control. Luciferase activity was measured at 24 hours post-transfection, and quantified relative to renilla luciferase activity.

**Q.** Which “% Cells in G2” value (HCT116DICER^ex5 cells [1]; aphidicolin 18 hours from 48 hours post transfection) does the source give for “miR-192: Synthetic duplex mimetic of miR-192, guide CUGACCUAUGAAUUGACAGCC (SEQ ID NO:1), passenger SEQ ID NO:7 (sense CUGUCAAUUCAUCGGUCUGAU; listed as RNA, chemistry not given here; listed as Homo sapiens)” here?
**A.** The value was 42.3%.

**Q.** And the “% Cells in G1” value (HCT116DICER^ex5 cells [1]; nocodazole 18 hours from 48 hours post transfection)?
**A.** Its value is 37.9%.

**Q.** And the “down-regulation of target transcripts” value [2]?
**A.** Its value is 30-40%.

**Q.** And the “candidate gene transcript levels” value [3]?
**A.** Its value is “decrease”.

**Q.** What about the “percentage of cells in M-phase” value (HCT116DICER^ex5 cells [4]) of the same substance?
**A.** The value was 4.9%.

**Q.** And the “% G1” value (HCT116DICER^ex5 cells [5]; after aphidicolin treatment)?
**A.** The value was 50.4%.

**Q.** And the “% G2” value (HCT116DICER^ex5 cells [5]; after aphidicolin treatment)?
**A.** Its value is 44.7%.

**Q.** What about the G2 arrest phenotype (HCT116DICER^ex5 cells [5]; aphidicolin) of the same substance?
**A.** Its G2 arrest phenotype is “induced a G2-arrest phenotype”.

**Q.** What about the G1 arrest phenotype (HCT116DICER^ex5 cells [5]; nocodazole) of the same substance?
**A.** Its G1 arrest phenotype is “induced a G1-arrest phenotype”.

**Q.** What about the “% G1” value (HCT116DICER^ex5 cells [5]; nocodazole) of the same substance?
**A.** The value was 43.9%.

**Q.** What about the “% G2” value (HCT116DICER^ex5 cells [5]; nocodazole) of the same substance?
**A.** The value was 53.6%.

**Q.** And the “regulation of 3′ UTR luciferase reporters of the 18 genes” value [6]?
**A.** Its value is “regulated”.

— patent US20110118337A1, “Method of Using Compositions Comprising MIR-192 and/or MIR-215 for the Treatment of Cancer” (Merck Sharp & Dohme Corp., priority 2008, published 2011)
